Starred links: 1 amine or outer side, 2 acyl side, 3 side chain; linkers in the order of their positions; H or OH if unused. Positions of bridges follow the written chain, without caps; N, C: chain ends. Non-standard residues stand in square brackets, D forms with d. Residues, ends and D or L forms follow the SMILES beside them. Chains are numbered I, II in the order given. *: point of attachment. isoGln = NC(=O)[C@H](CCC(=O)[*:2])N[*:1]; εLys = N[C@@H](CCCCN[*:1])C(=O)[*:2]; Dab = NCC[C@H](N)C(=O)O; PhAc = O=C(Cc1ccccc1)*
Columns and labels:
[1] = Metabolite pattern (M1, M5) in human plasma after i.v. infusion and s.c. injection; format: in vivo
Experimental: Urinalysis was performed locally by means of a dip-stick test. […] In case any result of the dipstick was abnormal and clinically significant, a new urine test was to be performed. If the abnormal result was confirmed, further examination could be initiated at the discretion of the Investigator. Clinically significant abnormal findings were reported as AEs. The metabolite pattern of Compound 1 in plasma and urine were measured.
In some instances, an objective of the study was to investigate metabolite pattern of Compound 1 in plasma and urine.
Due to analytical method interference, it was not possible to analyses for metabolites in human urine. After i.v. administration, the metabolite M1 was present only at low concentrations in one subject in the male and 4 subjects in the female dose group 0.6 mg, while it was present in all females and 5 of the 6 males in the 0.9 mg dose group, albeit with few exceptions below LOQ (FIG. 44, panel A).

rV1a receptor = biological target: T1, rV1a receptor (Rattus norvegicus, UniProt P30560); assay: FLIPR calcium assay, rat V1a (A7r5 cells); format: cell-based; conditions: A7R5, read-out: % MPE
T1 construct: endogenously expressing rV1a; host or cells: A7r5 rat thoracic aorta smooth muscle cells
Experimental: Cell Lines. Studies were conducted with cell lines expressing rat (r) or human (h) Via, V1b, V2, or OT receptors. For the experiments with human receptors, human embryonic kidney (HEK)-flp-in cells stably expressing the lacZ-Zeocin™ fusion gene were used for expression of hV1a and hV1b. These cells were designed for use with the Flp-In™ expression vector containing the gene of interest (here hV1a or hV1b) and the Flp recombinase expression plasmid, pOG44. For hV2 and hOTR, HEK-293 cells transiently expressing hV2 were used.
Functional Cell-Based Assays.

[2] = M1 formation after IV and SC (bolus) injection in healthy rats; conditions: in vivo, s.c. (bolus) injection, rat
Text: A similar study in healthy rats was used to evaluate the differences between metabolite formation of Compound 1 after IV bolus and SC (bolus) injection.

[3] = Effect of buffer concentration on bioavailability and M1 formation after SC (bolus) injection in rats; format: in vivo, rat; conditions: s.c. (bolus)
[4] = tested on: methionine/choline-deficient (MCD) diet rats; assay: MAP / ΔMAP in methionine/choline-deficient (MCD) diet rats; format: in vivo, rat; conditions: for Δ MAP (mean): SC, MCD diet rats
Experimental: The terlipressin dose was 100 μg/kg.
Data were evaluated as change […] from baseline.

[5] = tested on: methionine/choline-deficient (MCD) diet rats; assay: ΔPP in methionine/choline-deficient (MCD) diet rats; format: in vivo, rat; conditions: for Δ PP (mean): SC, MCD diet rats

T1 sequence (P30560 whole entry): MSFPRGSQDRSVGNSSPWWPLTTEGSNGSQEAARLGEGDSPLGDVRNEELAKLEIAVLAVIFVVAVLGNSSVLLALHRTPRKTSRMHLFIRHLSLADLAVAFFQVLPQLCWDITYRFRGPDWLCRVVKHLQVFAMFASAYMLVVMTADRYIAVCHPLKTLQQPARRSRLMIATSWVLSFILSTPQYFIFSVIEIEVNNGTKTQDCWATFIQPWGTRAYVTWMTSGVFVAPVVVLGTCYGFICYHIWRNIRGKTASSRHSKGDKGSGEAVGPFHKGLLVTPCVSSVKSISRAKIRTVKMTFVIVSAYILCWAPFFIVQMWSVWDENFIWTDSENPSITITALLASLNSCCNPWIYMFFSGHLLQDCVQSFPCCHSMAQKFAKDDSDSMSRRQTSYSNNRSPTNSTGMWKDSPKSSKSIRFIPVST

CC[C@H](C)[C@@H]1NC(=O)[C@H](Cc2ccccc2)NC(=O)[C@@H](N)CSSC[C@@H](C(=O)N2CCC[C@H]2C(=O)N[C@@H](CCNC(=O)[C@@H](N)CCCCNC(=O)[C@H](CCCCNC(C)=O)NC(=O)CC[C@H](NC(=O)[C@H](CCCNC(=N)N)NC(=O)[C@@H]2CCCN2C(=O)[C@H](C)NC(=O)[C@H](CC(N)=O)NC(=O)[C@H](CCC(N)=O)NC(=O)[C@H](Cc2ccccc2)NC(=O)[C@@H](Cc2ccc(OC)cc2)NC(=O)Cc2ccccc2)C(N)=O)C(=O)NCC(N)=O)NC(=O)[C@H](CC(N)=O)NC(=O)[C@H](CCC(N)=O)NC1=O [Compound 1, Glycinamide, L-cysteinyl-L-phenylalanyl-L-isoleucyl-L-glutaminyl-L-asparaginyl-L-cysteinyl-L-prolyl-N4-(phenylacetyl-O-methyl-D-tyrosyl-L-phenylalanyl-L-glutaminyl-L-asparaginyl-L-alanyl-L-prolyl-L-arginyl-L-isoglutamyl-N5-acetyl-L-lysyl-L-ε-lysyl)-L-2,4-diaminobutyryl-, cyclic (1→6)-disulfide] (I: H-CFIQNCP[Dab]G-NH2 / II: PhAc-[dY](Me)FQNAPR[isoGln]K(Ac)[εLys]; disulfide I:1-I:6; amide I:8-II:C)
half-life ([1]; i.v.): ~4 h
half-life ([1]; s.c.): about 2 hours
conversion of Compound 1 to M1 ([1]; s.c. (bolus) injection, human): 80-90%
Emax (rV1a receptor): 30%
metabolised [2]: 80 to 90%
bioavailability ([3]; about 10 mM buffer): about 13%
bioavailability ([3]; about 100 mM buffer): about 37%
Δ MAP (mean) ([4]; 25 μg/kg, 0 min): 0.0 mmHg
Δ MAP (mean) ([4]; 25 μg/kg, 1 min): 1.1 mmHg
Δ MAP (mean) ([4]; 25 μg/kg, 2 min): 1.9 mmHg
Δ MAP (mean) ([4]; 25 μg/kg, 3 min): 2.6 mmHg
Δ MAP (mean) ([4]; 25 μg/kg, 5 min): 3.5 mmHg
Δ MAP (mean) ([4]; 25 μg/kg, 7 min): 4.0 mmHg
Δ MAP (mean) ([4]; 25 μg/kg, 10 min): 4.8 mmHg
Δ MAP (mean) ([4]; 25 μg/kg, 15 min): 5.3 mmHg
Δ MAP (mean) ([4]; 25 μg/kg, 20 min): 5.2 mmHg
Δ MAP (mean) ([4]; 25 μg/kg, 30 min): 4.4 mmHg
Δ MAP (mean) ([4]; 25 μg/kg, 60 min): 3.0 mmHg
Δ MAP (mean) ([4]; 25 μg/kg, 90 min): 3.1 mmHg
Δ MAP (mean) ([4]; 100 μg/kg, 0 min): 0.0 mmHg
Δ MAP (mean) ([4]; 100 μg/kg, 1 min): 2.0 mmHg
Δ MAP (mean) ([4]; 100 μg/kg, 2 min): 3.5 mmHg
Δ MAP (mean) ([4]; 100 μg/kg, 3 min): 4.4 mmHg
Δ MAP (mean) ([4]; 100 μg/kg, 5 min): 7.0 mmHg
Δ MAP (mean) ([4]; 100 μg/kg, 7 min): 8.5 mmHg
Δ MAP (mean) ([4]; 100 μg/kg, 10 min): 9.9 mmHg
Δ MAP (mean) ([4]; 100 μg/kg, 15 min): 11.0 mmHg
Δ MAP (mean) ([4]; 100 μg/kg, 20 min): 11.3 mmHg
Δ MAP (mean) ([4]; 100 μg/kg, 30 min): 10.6 mmHg
Δ MAP (mean) ([4]; 100 μg/kg, 60 min): 10.9 mmHg
Δ MAP (mean) ([4]; 100 μg/kg, 90 min): 9.2 mmHg
Δ MAP (mean) ([4]; 500 μg/kg, 0 min): 0.0 mmHg
Δ MAP (mean) ([4]; 500 μg/kg, 1 min): 2.2 mmHg
Δ MAP (mean) ([4]; 500 μg/kg, 2 min): 4.5 mmHg
Δ MAP (mean) ([4]; 500 μg/kg, 3 min): 6.4 mmHg
Δ MAP (mean) ([4]; 500 μg/kg, 5 min): 9.1 mmHg
Δ MAP (mean) ([4]; 500 μg/kg, 7 min): 12.1 mmHg
Δ MAP (mean) ([4]; 500 μg/kg, 10 min): 14.7 mmHg
Δ MAP (mean) ([4]; 500 μg/kg, 15 min): 13.6 mmHg
Δ MAP (mean) ([4]; 500 μg/kg, 20 min): 13.7 mmHg
Δ MAP (mean) ([4]; 500 μg/kg, 30 min): 11.4 mmHg
Δ MAP (mean) ([4]; 500 μg/kg, 60 min): 9.1 mmHg
Δ MAP (mean) ([4]; 500 μg/kg, 90 min): 10.2 mmHg
highest observed absolute MAP ([4]; SC 25 μg/kg): 79.2±1.4 mmHg
highest observed absolute MAP ([4]; SC 100 μg/kg): 86.8±2.5 mmHg
highest observed absolute MAP ([4]; SC 500 μg/kg): 90.4±3.7 mmHg
maximum ΔMAP ([4]; SC 25 g/kg (so in the source)): 5.3±1.1 mmHg
Δ PP (mean) ([5]; 25 μg/kg, 0 min): 0.0 mmHg
Δ PP (mean) ([5]; 25 μg/kg, 1 min): −0.3 mmHg
Δ PP (mean) ([5]; 25 μg/kg, 2 min): −0.8 mmHg
Δ PP (mean) ([5]; 25 μg/kg, 3 min): −1.3 mmHg
Δ PP (mean) ([5]; 25 μg/kg, 5 min): −1.8 mmHg
Δ PP (mean) ([5]; 25 μg/kg, 7 min): −1.9 mmHg
Δ PP (mean) ([5]; 25 μg/kg, 10 min): −2.1 mmHg
Δ PP (mean) ([5]; 25 μg/kg, 15 min): −2.2 mmHg
Δ PP (mean) ([5]; 25 μg/kg, 20 min): −2.3 mmHg
Δ PP (mean) ([5]; 25 μg/kg, 30 min): −2.3 mmHg
Δ PP (mean) ([5]; 25 μg/kg, 60 min): −2.2 mmHg
Δ PP (mean) ([5]; 25 μg/kg, 90 min): −1.8 mmHg
Δ PP (mean) ([5]; 100 μg/kg, 0 min): 0.0 mmHg
Δ PP (mean) ([5]; 100 μg/kg, 1 min): −0.5 mmHg
Δ PP (mean) ([5]; 100 μg/kg, 2 min): −1.2 mmHg
Δ PP (mean) ([5]; 100 μg/kg, 3 min): −1.6 mmHg
Δ PP (mean) ([5]; 100 μg/kg, 5 min): −2.1 mmHg
Δ PP (mean) ([5]; 100 μg/kg, 7 min): −2.5 mmHg
Δ PP (mean) ([5]; 100 μg/kg, 10 min): −2.5 mmHg
Δ PP (mean) ([5]; 100 μg/kg, 15 min): −2.4 mmHg
Δ PP (mean) ([5]; 100 μg/kg, 20 min): −2.3 mmHg
Δ PP (mean) ([5]; 100 μg/kg, 30 min): −2.2 mmHg
Δ PP (mean) ([5]; 100 μg/kg, 60 min): −2.0 mmHg
Δ PP (mean) ([5]; 100 μg/kg, 90 min): −1.7 mmHg
Δ PP (mean) ([5]; 500 μg/kg, 0 min): 0.0 mmHg
Δ PP (mean) ([5]; 500 μg/kg, 1 min): −1.2 mmHg
Δ PP (mean) ([5]; 500 μg/kg, 2 min): −1.9 mmHg
Δ PP (mean) ([5]; 500 μg/kg, 3 min): −2.5 mmHg
Δ PP (mean) ([5]; 500 μg/kg, 5 min): −2.9 mmHg
Δ PP (mean) ([5]; 500 μg/kg, 7 min): −3.3 mmHg
Δ PP (mean) ([5]; 500 μg/kg, 10 min): −2.9 mmHg
Δ PP (mean) ([5]; 500 μg/kg, 15 min): −3.5 mmHg
Δ PP (mean) ([5]; 500 μg/kg, 20 min): −3.8 mmHg
Δ PP (mean) ([5]; 500 μg/kg, 30 min): −3.9 mmHg
Δ PP (mean) ([5]; 500 μg/kg, 60 min): −3.4 mmHg
Δ PP (mean) ([5]; 500 μg/kg, 90 min): −3.7 mmHg
maximum ΔPP ([5]; SC 25 jag/kg (so in the source)): −2.3±0.2 mmHg
maximum ΔPP ([5]; SC 100 jag/kg (so in the source)): −2.5±0.3 mmHg
maximum ΔPP ([5]; SC 500 jag/kg (so in the source)): −3.9±0.8 mmHg

Reference: patent US20260315609A1, “MIXED VASOPRESSIN RECEPTOR AGONIST-ANTAGONIST FOR TREATING END-STAGE LIVER DISEASE AND COMPLICATIONS ASSOCIATED THEREOF” (FERRING B.V., priority 2022, published 2026)
